Where “and” joins values, the source holds several entries; their conditions need not be identical. Equal values may be shown once.
Legend:
HIV-1IIIB = experiment: Anti-HIV-1 activity; format: cell-based; details: for SI (selectivity index): ratio CC50/EC50, C8166 cells, Table 1; for times more potent than NVP: C8166, Table 1 EC50
[1] = Cytotoxicity in C8166 cells by MTT method; details: human
[2] = test system: K103N/Y181C double mutant HIV-1 strain; details: cited from earlier work
HIV-1Ba-L = experiment: Anti-HIV-1Ba-L activity, luciferase gene expression assay in TZM-bl cells; format: cell-based; details: Human immunodeficiency virus 1, TZM-b1
HIV-1TC-1 = format: cell-based; details: Human immunodeficiency virus 1, PBMC, HIV-1TC-1, PBMC; Table 2
HIV-1WAN = format: cell-based; details: Human immunodeficiency virus 1, PBMC
in vivo = details: male, Sprague-Dawley, rat, plasma
HIV-1A17 (K103N + Y181C) = experiment: Anti-HIV-1 activity against resistant strain HIV-1A17; format: cell-based; details: Human immunodeficiency virus 1, C8166
Cytotoxicity in PBMC = format: cell-based; details: human, PBMC (peripheral blood mononuclear cells)
[3] = test system: HIV-1 laboratory adapted strains and primary isolated strains; format: cell-based; details: HIV-1IIIB, HIV-1Ba-L and HIV-1TC-1; Table 2 EC50
HIV-1_74V = experiment: Anti-HIV-1 activity against resistant strain HIV-1_74V in C8166 cells; format: cell-based; details: Human immunodeficiency virus 1, C8166
[4] = Cytotoxicity in TZM-bl cells; format: cell-based; details: human
recombinant HIV-1 RT = recombinant HIV-1 RT (Human immunodeficiency virus type 1 group M subtype B, UniProt P04585); experiment: Enzymatic recombinant HIV-1 RT activity assay; format: biochemical
HIV-1RF/V82F/184V = experiment: Anti-HIV-1 activity against resistant strain HIV-1RF/V82F/184V in C8166 cells; format: cell-based; details: Human immunodeficiency virus 1, C8166

O=c1cc(CC2CCCCC2)nc(SCc2cc(-c3ccccc3)[nH]n2)[nH]1 [I-38, 6-(Cyclohexylmethyl)-2-(((5-phenyl-1H-pyrazol-3-yl)methyl)thio)pyrimidin-4(3H)-one]
SI (selectivity index) (HIV-1IIIB): 16 | CC50 at 3 days [1]: 79100 ± 5340 nM

Cc1cc(C#N)cc(C)c1Oc1nc(Nc2ccc(C#N)cc2)nc(N)c1Br [ETR, etravirine, reference compound]
EC50 [2]: 50 nM | SI (selectivity index) (HIV-1IIIB): 19,628 | CC50 at 3 days [1]: 27500 ± 5690 nM

CCc1c(CC2CCCCC2)nc(SCc2n[nH]c(-c3ccc(Cl)c(Cl)c3)c2Cl)[nH]c1=O [I-32, 2-(((4-Chloro-5-(3,4-dichlorophenyl)-1H-pyrazol-3-yl)methyl)thio)-6-(cyclohexylmethyl)-5-ethyl-pyrimidin-4(3H)-one]
SI (selectivity index) (HIV-1IIIB): 544 | CC50 at 3 days [1]: 190000 ± 13900 nM

CCc1c(CC2CCCCC2)nc(SCc2cc(-c3ccc(O)cc3)[nH]n2)[nH]c1=O [I-11, 6-(Cyclohexylmethyl)-5-ethyl-2-(((5-(4-hydroxyphenyl)-1H-pyrazol-3-yl)methyl)thio)pyrimidin-4(3H)-one]
EC50 (HIV-1Ba-L): 48.5 ± 6.8 nM | EC50 (HIV-1TC-1): 14.5 ± 0.1 nM | EC50 (HIV-1WAN): 56.6 ± 2.4 nM | AUC(0-inf) (in vivo; iv, 1 mg/kg): 2630 ng·h/mL | AUC(0-t) (in vivo; iv, 1 mg/kg): 2600 ng·h/mL | Cmax (in vivo; iv, 1 mg/kg): 7180 ng/mL | MRT inf (in vivo; iv, 1 mg/kg): 33.2 min | Vd (in vivo; iv, 1 mg/kg): 0.213 L/kg | clearance (in vivo; iv, 1 mg/kg): 6.4 mL/min/kg | half-life (in vivo; iv, 1 mg/kg): 72 min | bioavailability (in vivo; oral, 5 mg/kg): 10.4% | AUC(0-inf) (in vivo; po, 5 mg/kg): 1370 ng·h/mL | AUC(0-t) (in vivo; po, 5 mg/kg): 1300 ng·h/mL | CL/F (in vivo; po, 5 mg/kg): 63.8 mL/min/kg | Cmax (in vivo; po, 5 mg/kg): 1.54 µM and 654 ng/mL | MRT (in vivo; po, 5 mg/kg): 33.2 min | Tmax (in vivo; po, 5 mg/kg): 30 min | half-life (in vivo; po, 5 mg/kg): 150 min | EC50 (HIV-1A17 (K103N + Y181C)): 2770 ± 820 nM | CC50 (Cytotoxicity in PBMC): 46800 ± 5200 nM | times more potent than NVP [3]: 5–14 times | EC50 (HIV-1_74V): 46.2 ± 23.7 nM | times more potent than NVP (HIV-1IIIB): about 10 times | CC50 at 3 days [4]: 77100 ± 3680 nM | IC50 (recombinant HIV-1 RT): 1090 ± 590 nM | EC50 (HIV-1RF/V82F/184V): 54.1 ± 23.1 nM

Cc1cn([C@H]2C[C@H](N=[N+]=[N-])[C@@H](CO)O2)c(=O)[nH]c1=O [AZT, zidovudine, reference compound]
SI (selectivity index) (HIV-1IIIB): >22,472 | CC50 at 3 days [1]: > 200000 nM

CCc1c(CC2CCCCC2)nc(SCc2cc(-c3ccc(C)cc3)[nH]n2)[nH]c1=O [I-07, 6-(Cyclohexylmethyl)-5-ethyl-2-(((5-(p-tolyl)-1H-pyrazol-3-yl)methyl)thio)pyrimidin-4(3H)-one]
SI (selectivity index) (HIV-1IIIB): 1748 | CC50 at 3 days [1]: 91400 ± 1900 nM

CCc1c(CC2CCCCC2)nc(SCc2cc(-c3ccccc3)[nH]n2)[nH]c1=O [I-01, 6-(Cyclohexylmethyl)-5-ethyl-2-(((5-phenyl-1H-pyrazol-3-yl)methyl)thio)pyrimidin-4(3H)-one]
times more potent than NVP (HIV-1IIIB): about 10 times

CCc1c(CC2CCCCC2)nc(SCc2cc(-c3ccc(SC)cc3)[nH]n2)[nH]c1=O [I-12, 6-(Cyclohexylmethyl)-5-ethyl-2-(((5-(4-(methylthio)phenyl)-1H-pyrazol-3-yl)methyl)thio)pyrimidin-4(3H)-one]
EC50 (HIV-1Ba-L): 193 ± 26.1 nM | EC50 (HIV-1TC-1): 55.4 ± 11.2 nM | EC50 (HIV-1WAN): 165 nM | EC50 (HIV-1A17 (K103N + Y181C)): 4870 ± 2710 nM | CC50 (Cytotoxicity in PBMC): > 200000 nM | EC50 (HIV-1_74V): 88.1 ± 17.9 nM | CC50 at 3 days [4]: > 200000 nM | IC50 (recombinant HIV-1 RT): 2270 ± 120 nM | EC50 (HIV-1RF/V82F/184V): 219 ± 46.5 nM

CCc1c(CC2CCCCC2)nc(SCc2cc(-c3cccc(C)c3)[nH]n2)[nH]c1=O [I-02, 6-(Cyclohexylmethyl)-5-ethyl-2-(((5-(m-tolyl)-1H-pyrazol-3-yl)methyl)thio)pyrimidin-4(3H)-one]
SI (selectivity index) (HIV-1IIIB): 1120 | CC50 at 3 days [1]: 82800 ± 2200 nM

Cc1ccnc2c1NC(=O)c1cccnc1N2C1CC1 [NVP, nevirapine, reference compound]
EC50 (HIV-1Ba-L): 166 ± 46.5 nM | EC50 (HIV-1TC-1): 199 ± 48.7 nM | EC50 (HIV-1WAN): 77 ± 19.3 nM | EC50 (HIV-1A17 (K103N + Y181C)): 20200 ± 3100 nM | CC50 (Cytotoxicity in PBMC): > 200000 nM | EC50 (HIV-1_74V): 76.8 ± 19.3 nM | CC50 at 3 days [4]: > 200000 nM | EC50 (HIV-1RF/V82F/184V): 61.4 ± 8.5 nM
